Data set [1] is described as follows: Tolerability of chronic intraperitoneal treatment (clinical signs, body weight). In kind it is in vivo. Conditions: i.p. 30 mg/Kg/day for three weeks. How it is done:
(§1) In this study, 18 mice received a single dose and were sampled within 24 h, and the other 18 were treated every day for three weeks (qdx21) and sampled on day 21. Mice were monitored daily for clinical signs of toxicity and distress, and body weight was measured at least twice a week. Blood samples were collected after both treatment regimens at 15 and 30 min, and 1, 3, 8, and 24 h post dose. Three mice were analyzed for each time point. After the animals were anesthetized with isoflurane, the blood was drained from the retro-orbital plexus into heparinized tubes, and then centrifuged for 10 min at 4000 g at 4 °C to separate plasma. A 24-h urine fraction was collected in three mice for each drug and route of administration. Plasma and urine samples were stored at −20 °C until analysis by HPLC-MS/MS.

Data set [2] is described as follows: Plasma pharmacokinetics and urinary elimination after acute and chronic intraperitoneal administration. In kind it is in vivo, FVB mice. How it is done:
as §1
Reversed-phase chromatography was performed using a series 200 HPLC system (Perkin Elmer, Waltham, MA, USA) under gradient conditions with separation on a HILIC column, 3 µm, 100 A, 2.1 × 150 mm (Waters, Milford, MA, USA), coupled with a 3 µm, 3.9 × 5.0 mm guard column of the same material at the flow rate of 0.2 mL/min. Gradient features: 10% mobile phase (MP) A (NH4HCO2 10 mM, 10% CH3CN, 0.1% HCOOH) and 90% MP B (CH3CN, 0.1% HCOOH) as the initial constant condition; then to 90% MP A in 6 min and the constant condition for 1.5 min. Return to the start condition in 0.5 min and conditioning for 5.5 min. Total run time: 13.5 min. Mass spectrometric detection was performed using an API 4000 triple quadrupole mass spectrometer (SCIEX, Framingham, MA, USA) supplied with a Turbo Ion Spray source set at 350 °C and −4200 V, analyzing biological samples with electrospray ionization (ESI) operating in negative ion mode. Purified air was used as nebulizer gas (Gas 1) and heater gas (Gas 2) and N2 was used as curtain gas and collision activated dissociation gas. They were set to 40, 50, 20, and 4 instrument units (psi), respectively. The declustering potential (DP) was set at −119 V and the collision exit potential (CXP) at –10 V. All parameters of the source were defined by direct infusion of ZST316 and ZST152 1 µg/mL in mobile phase B. The final quantification was carried out in Selected Reaction Monitoring (SRM) with the following transitions: m/z 307.9 → 208.0 (collision energy of −29.5 eV) for ZST316 and m/z 271.9 → 170.9 (collision energy −24.7 eV) for ZST152 (Figure 2 and Figure 3). Data were processed with the software package Analyst 1.6.2 (AB SCIEX).
Pharmacokinetic parameters and descriptive statistics (means, standard deviations, percentages) were calculated using Phoenix WinNonlin V 8.3 (Certara Inc., Princeton, NJ, USA).

Where [3] appears, read: FVB, mouse, plasma, ip, i.p. 30 mg/Kg, acute.
[4] abbreviates: FVB, mouse, plasma, ip, i.p. 30 mg/Kg/day, chronic.

Like-named read-outs stand apart in the source and are kept apart here.

As a reminder, the AUC(0-inf) is total exposure, with the tail of the curve extrapolated. A low value points to low exposure. What is called Tmax is the time from dosing to the highest level. The half-life is the time needed for the level to fall by half in the phase considered. The Cmax is the highest concentration seen after dosing. What is called bioavailability is dose-corrected exposure relative to a reference, in per cent. Take `COCCNC(=N)NCCC[C@H](N)C(=O)NS(C)(=O)=O` [ZST316]: the “tolerability of chronic treatment” value in data set [1] is “well tolerated”. Further, in data set [1] (30 mg/kg/day), the “body weight during treatment vs. untreated animals” value is given as “no changes in body weight vs. untreated animals”. Also, the “clinical signs of toxicity or distress” value in data set [1] (30 mg/kg/day) is recorded as “no clinical signs of toxicity or distress were noticed”. Moreover, the AUC(0-t) in data set [2] (FVB, mouse, plasma, ip, 30 mg/kg, i.p. 30 mg/Kg, acute, read-out: AUC 0-8h) was determined as 14300 ng·h/mL; in data set [2] (FVB, mouse, plasma, ip, 30 mg/kg, i.p. 30 mg/Kg, acute, read-out: AUC 0-last), 14400 ng·h/mL; in data set [2] (FVB, mouse, plasma, ip, 30 mg/kg/day, i.p. 30 mg/Kg/day, chronic, read-out: AUC 0-8h) it was 12300 ng·h/mL; in data set [2] (FVB, mouse, plasma, ip, 30 mg/kg/day, i.p. 30 mg/Kg/day, chronic, read-out: AUC 0-last), 12600 ng·h/mL. In addition, the AUC(0-inf) in data set [2] (setting [3]) turned out to be 14500 ng·h/mL; in data set [2] (setting [4]) it was 12700 ng·h/mL. Moreover, the time to peak (Tmax) in data set [2] (setting [3]) and in data set [2] (setting [4]) was 0.25 h throughout. Besides, the half-life was 5.7 h in data set [2] (setting [3]) and 8.4 h in data set [2] (setting [4]). In data set [2] (FVB, mouse, plasma, ip, i.p. 30 mg/Kg, acute (single dose)), this compound displayed a maximum concentration (Cmax) of 40200 ng/mL. Further, the bioavailability in data set [2] (FVB, mouse, plasma, ip, i.p. 30 mg/Kg, acute, read-out: F % (bioavailability)) was determined as 67%. The compound further displayed a Cmax at 21 days in data set [2] (FVB, mouse, plasma, ip, i.p. 30 mg/Kg/day for three weeks, chronic (day 21)) of 33600 ng/mL. Besides, the bioavailability at 21 days in data set [2] (FVB, mouse, plasma, ip, i.p. 30 mg/Kg/day, chronic, read-out: F % (bioavailability)) worked out at 59%. Further, the “24-h urinary excretion (% of dose)” value in data set [2] (i.p. 30 mg/Kg, acute) is recorded as 56.1 % of dose; in data set [2] (i.p. 30 mg/Kg/day, chronic) it was 54.1 % of dose. In addition, the “urinary excretion, % of the administered dose” value in data set [2] (i.p. 30 mg/Kg, acute/chronic not distinguished) is 55%. Besides, in data set [2] (i.p. 30 mg/Kg/day for three weeks, 30 mg/kg/day), the “accumulation after chronic treatment” value was “no accumulation was observed”.

Values taken from article PMC8840040, “Pharmacokinetic Characterization of the DDAH1 Inhibitors ZST316 and ZST152 in Mice Using a HPLC-MS/MS Method” (Molecules, 2022).
